US20120149080A1, “YEAST PRODUCTION CULTURE FOR THE PRODUCTION OF BUTANOL” (Butamax(TM) Advanced Biofuels LLC, priority 2010, published 2012)

Columns and labels:
Assay in all cases: Glucose consumption rate in high cell density culture in YPD
Format in all cases: cell-based
Settings in all cases: about 3.9 gdcw/L
[1] = test system: Saccharomyces cerevisiae PNY0571
Text: (§1) S. cerevisiae strains used were PNY0569 CEN.PK122 (MATa MAL2-8c SUC2/MATalpha MAL2-8c SUC2) and PNY0571 (CEN.PK 113-7D MATa MAL2-8c SUC2), obtained from Centraalbureau voor Schimmelcultures, Fungal and Yeast Collection (Netherlands) as well as PNY0602 and PNY0614. PNY0602 and PNY0614 were isolated from a mutagenized culture of PNY0571. PNY0571 (CEN.PK 113-7D) was subjected to 10 rounds of chemical mutagenesis with N-methyl-N′-nitro-N-nitrosoguanidine (NTG) and ethylmethane sulfonate (EMS) using standard methods (Barbour, L., M. Hanna and W. Xiao. 2006. Mutagenesis, p. 121-127. In W. Xiao (ed.), Yeast Protocols, Second Edition. Humana Press, NJ). Cells were grown overnight in 10 ml of YPD at 30° C. with shaking. The overnight culture was centrifuged, and the pellet was resuspended in 50 mM potassium phosphate buffer, pH 7.0. The cells were again centrifuged and resuspended in 10 ml of the same buffer. A portion of the resuspended cells (2.5 ml) was transferred to a plastic 15 ml screw cap centrifuge tube, and the cells were treated with NTG (10 μg/ml final concentration) or EMS (3% w/v) for 40 minutes at 30° C. without shaking. The mutagen was inactivated by addition of an equal volume of filter sterilized 10% (w/v) sodium thiosulfate. The treated cells were centrifuged and resuspended in water two times. The treatment protocol involved repeated cycles of treating yeast cells with one of the mutagens (e.g., NTG), allowing the surviving cells to grow out overnight in YPD with 1% isobutanol, and then treating the overnight culture with the other mutagen (e.g., EMS). After the fifth cycle (i.e., a total of ten treatments with mutagen), cells were screened for isobutanol tolerance. PNY0602 was isolated after prolonged (24 h) exposure to 3.0% isobutanol. PNY0614 was isolated after 5 cycles of repeated freezing and thawing of the mutagenized culture by resuspending mutagenized cells in distilled water and transferring the cells to dry-ice ethanol bath and a 37° C. water bath for 20 minutes each.
(§2) Glucose consumption rates in the presence of isobutanol in YPD were also determined when the cell concentration was about 8 O.D. (about 3.9 gdcw/L). Saccharomyces cerevisiae strains PNY0571, PNY0602 and PNY0614 were plated from a freezer vial onto YPD agar (Teknova, Hollister, Calif.; Cat. #Y1000) and incubated overnight at 30° C. Cells from the YPD plate were inoculated into a 25 ml pre-culture of YPD broth (Teknova, Hollister, Calif.; Cat. #Y5000) with an initial OD600 of 0.06 to 0.08, and this culture was grown for 7 hours in an air shaker at 30° C. An aliquot of the pre-culture was inoculated into 200 ml of YPD broth with an initial OD600 of 0.06 to 0.08, and this culture was incubated with aeration at 30° C. for approximately 17 hours. The optical density of the culture was determined, the culture was centrifuged and the cells were resuspended in fresh YPD broth to yield an OD600 of 8. At this point, an aliquot of 10 ml of the culture was used for a dry cell weight determination, which gave dry cell weight in the range of 3.89 gdcw/L.
(§3) 20 ml cultures were transferred to flasks that contained 0.0%, 0.5%, 0.75%, 1.0%, 1.25%, 1.5%, 1.75%, 2.0% and 2.5% isobutanol. Time of addition of cells was referred to as 0 hours. At various times samples (500 to 700 ul) were transferred to a tube containing an equal volume of 10% TCA. Samples were centrifuged and glucose determined in the YSI glucose analyzer (YSI 2700 Select).

[2] = test system: Saccharomyces cerevisiae PNY0614
Text: as §1, §2, §3

[3] = test system: Saccharomyces cerevisiae PNY0602
Text: as §1, §2, §3

CC(C)CO [Isobutanol, isobutanol]
Glucose consumed per gdcw per hour ([1]; PNY0571, 0.5% isobutanol): 2.1 per gdcw per hour | Glucose consumed per gdcw per hour ([1]; PNY0571, 0.75% isobutanol): 2.0 per gdcw per hour | Glucose consumed per gdcw per hour ([1]; PNY0571, 1% isobutanol): 1.9 per gdcw per hour | Glucose consumed per gdcw per hour ([1]; PNY0571, 1.5% isobutanol): 1.0 per gdcw per hour | Glucose consumed per gdcw per hour ([1]; PNY0571, 1.75% isobutanol): 0.8 per gdcw per hour | Glucose consumed per gdcw per hour ([1]; PNY0571, 2% isobutanol): 0.6 per gdcw per hour | Glucose consumed per gdcw per hour ([1]; PNY0571, 2.5% isobutanol): 0.3 per gdcw per hour | Glucose consumed per gdcw per hour ([2]; PNY0614, 0.5% isobutanol): 2.9 per gdcw per hour | Glucose consumed per gdcw per hour ([2]; PNY0614, 0.75% isobutanol): 2.8 per gdcw per hour | Glucose consumed per gdcw per hour ([2]; PNY0614, 1% isobutanol): 2.6 per gdcw per hour | Glucose consumed per gdcw per hour ([2]; PNY0614, 1.5% isobutanol): 1.4 per gdcw per hour | Glucose consumed per gdcw per hour ([2]; PNY0614, 1.75% isobutanol): 1.0 per gdcw per hour | Glucose consumed per gdcw per hour ([2]; PNY0614, 2% isobutanol): 0.8 per gdcw per hour | Glucose consumed per gdcw per hour ([2]; PNY0614, 2.5% isobutanol): 0.4 per gdcw per hour | Glucose consumed per gdcw per hour ([3]; PNY0602, 0.5% isobutanol): 3.0 per gdcw per hour | Glucose consumed per gdcw per hour ([3]; PNY0602, 0.75% isobutanol): 2.9 per gdcw per hour | Glucose consumed per gdcw per hour ([3]; PNY0602, 1% isobutanol): 2.7 per gdcw per hour | Glucose consumed per gdcw per hour ([3]; PNY0602, 1.5% isobutanol): 1.5 per gdcw per hour | Glucose consumed per gdcw per hour ([3]; PNY0602, 1.75% isobutanol): 1.1 per gdcw per hour | Glucose consumed per gdcw per hour ([3]; PNY0602, 2% isobutanol): 0.9 per gdcw per hour | Glucose consumed per gdcw per hour ([3]; PNY0602, 2.5% isobutanol): 0.5 per gdcw per hour
